Measured values: DBAASP
≈ marks a conversion by molar mass, not a printed value.

What was measured:
Test in all cases: ≥ marks a high value that may be exact or a test limit, other limits are often not marked, values filed in µg/mL are converted to µM
[1] = system: Bacillus subtilis PS832
[2] = system: Escherichia coli DL7
[3] = system: Klebsiella aerogenes ATCC 13048
[4] = system: Staphylococcus epidermidis ATCC 12228
[5] = system: Acinetobacter baumannii CICC 22934
[6] = system: Bacillus cereus AS1.126
[7] = system: Enterobacter cloacae CGMCC 1.58
[8] = system: Enterococcus faecalis CGMCC 1.595
[9] = system: Enterococcus faecium CGMCC 1.2334
[10] = system: Escherichia coli AS1.349
[11] = system: Klebsiella aerogenes CGMCC 1.876
[12] = system: Klebsiella pneumoniae subsp. pneumoniae CGMCC 1.176
[13] = system: Lactococcus lactis AS1.1690
[14] = system: Proteus mirabilis CICC 22931
[15] = system: Pseudomonas aeruginosa CGMCC 1.860
[16] = system: Staphylococcus aureus AS1.72
[17] = system: Acinetobacter baumannii CCARM 12005
[18] = system: Acinetobacter baumannii CCARM 12035
[19] = system: Acinetobacter baumannii CCARM 12036
[20] = system: Acinetobacter baumannii CCARM 12037
[21] = system: Bacillus subtilis KCTC 1021
[22] = system: Bacillus subtilis KCTC 1022
[23] = system: Bacillus subtilis KCTC 3068
[24] = system: Escherichia coli CCARM 1229
[25] = system: Escherichia coli CCARM 1238
[26] = system: Escherichia coli KCTC 1682
[27] = system: Escherichia coli KCTC 2571
[28] = system: Escherichia coli KCTC 2593
[29] = system: Pseudomonas aeruginosa CCARM 2002
[30] = system: Pseudomonas aeruginosa CCARM 2003
[31] = system: Pseudomonas aeruginosa CCARM 2095
[32] = system: Pseudomonas aeruginosa CCARM 2163
[33] = system: Pseudomonas aeruginosa KCTC 1637
[34] = system: Pseudomonas aeruginosa KCTC 2004
[35] = system: Pseudomonas aeruginosa KCTC 2513
[36] = system: Salmonella typhimurium CCARM 8003
[37] = system: Salmonella typhimurium CCARM 8007
[38] = system: Salmonella typhimurium CCARM 8009
[39] = system: Salmonella typhimurium KCTC 1926
[40] = system: Staphylococcus aureus CCARM 3089
[41] = system: Staphylococcus aureus CCARM 3090
[42] = system: Staphylococcus aureus CCARM 3108
[43] = system: Staphylococcus aureus CCARM 3114
[44] = system: Staphylococcus aureus CCARM 3126
[45] = system: Staphylococcus aureus KCTC 1621
[46] = system: Staphylococcus aureus KCTC 1916
[47] = system: Staphylococcus aureus KCTC 3881
[48] = system: Staphylococcus epidermidis KCTC 1917
[49] = system: Erwinia amylovora PMV 6076
[50] = system: Pseudomonas syringae pv. syringae EPS 94
[51] = system: Xanthomonas campestris pv. Vesicatoria 2133-2

CC[C@H](C)[C@H](NC(=O)[C@H](CCCN=C(N)N)NC(=O)[C@H](CCCCN)NC(=O)[C@H](CC(C)C)NC(=O)[C@H](CC(C)C)NC(=O)CNC(=O)[C@H](Cc1cnc[nH]1)NC(=O)[C@@H](NC(=O)[C@@H](N)C(C)C)[C@@H](C)CC)C(=O)N[C@@H](CCCCN)C(=O)N[C@H](C(=O)N[C@@H](CC(C)C)C(=O)N[C@@H](CC(C)C)C(N)=O)[C@@H](C)O [VIHGLLKRIKTLL]
MIC [1]: 0.5 µM (≈ 0.751 µg/mL)
MIC [2]: 2 µM (≈ 3.01 µg/mL)
MIC [3]: ≥ 32 µM
MIC [4]: 2 µM (≈ 3.01 µg/mL)

CC(C)C[C@H](NC(=O)[C@H](Cc1cnc[nH]1)NC(=O)[C@H](CCCN=C(N)N)NC(=O)CNC(=O)[C@@H](NC(=O)[C@H](C)NC(=O)[C@@H](N)CO)C(C)C)C(=O)N[C@@H](CCCN=C(N)N)C(=O)N[C@@H](CCCN=C(N)N)C(=O)N[C@@H](Cc1ccccc1)C(=O)N[C@@H](CC(C)C)C(=O)N[C@@H](CC(C)C)C(=O)N[C@@H](CCCN=C(N)N)C(=O)N[C@@H](CCCCN)C(=O)N[C@@H](Cc1cnc[nH]1)C(=O)N[C@@H](CCCN=C(N)N)C(=O)N[C@@H](CCCCN)C(=O)N[C@@H](Cc1cnc[nH]1)C(=O)O [SAVGRHLRRFLLRKHRKH]
MIC [5]: ≥ 100 µM
MIC [6]: 2.34 µM (≈ 5.31 µg/mL)
MIC [7]: ≥ 100 µM
MIC [8]: 4.69 µM (≈ 10.6 µg/mL)
MIC [9]: 4.69 µM (≈ 10.6 µg/mL)
MIC [10]: ≥ 100 µM
MIC [11]: ≥ 100 µM
MIC [12]: ≥ 100 µM
MIC [13]: 4.69 µM (≈ 10.6 µg/mL)
MIC [14]: ≥ 100 µM
MIC [15]: ≥ 100 µM
MIC [16]: 3.13 µM (≈ 7.1 µg/mL)

CC[C@H](C)[C@H](NC(=O)CNC(=O)[C@H](CCCN=C(N)N)NC(=O)[C@H](CCCCN)NC(=O)[C@@H](NC(=O)[C@H](Cc1cnc[nH]1)NC(=O)[C@H](Cc1cnc[nH]1)NC(=O)[C@H](Cc1ccccc1)NC(=O)[C@@H](N)Cc1ccccc1)[C@@H](C)CC)C(=O)N[C@@H](CCCCN)C(=O)N[C@@H](Cc1cnc[nH]1)C(=O)N[C@H](C(=O)NCC(=O)N[C@@H](CCCCN)C(=O)N[C@H](C(=O)N[C@H](C(=O)N[C@@H](Cc1cnc[nH]1)C(=O)N[C@@H](CCCN=C(N)N)C(=O)N[C@@H](CC(C)C)C(=O)N[C@H](C(=O)N[C@H](C(=O)NCC(=O)O)[C@@H](C)O)C(C)C)[C@@H](C)CC)[C@@H](C)O)C(C)C [FFHHIKRGIKHVGKTIHRLVTG]
MIC [17]: 4 µM (≈ 10.3 µg/mL)
MIC [18]: 4 µM (≈ 10.3 µg/mL)
MIC [19]: 4 µM (≈ 10.3 µg/mL)
MIC [20]: 4 µM (≈ 10.3 µg/mL)
MIC [21]: 8 µM (≈ 20.7 µg/mL)
MIC [22]: 4 µM (≈ 10.3 µg/mL)
MIC [23]: 4 µM (≈ 10.3 µg/mL)
MIC [24]: 8 µM (≈ 20.7 µg/mL)
MIC [25]: 8 µM (≈ 20.7 µg/mL)
MIC [26]: 2 µM (≈ 5.16 µg/mL)
MIC [27]: 4 µM (≈ 10.3 µg/mL)
MIC [28]: 4 µM (≈ 10.3 µg/mL)
MIC [29]: 4 µM (≈ 10.3 µg/mL)
MIC [30]: 4 µM (≈ 10.3 µg/mL)
MIC [31]: 2 µM (≈ 5.16 µg/mL)
MIC [32]: 2 µM (≈ 5.16 µg/mL)
MIC [33]: 4 µM (≈ 10.3 µg/mL)
MIC [34]: 8 µM (≈ 20.7 µg/mL)
MIC [35]: 8 µM (≈ 20.7 µg/mL)
MIC [36]: 16 µM (≈ 41.3 µg/mL)
MIC [37]: 8 µM (≈ 20.7 µg/mL)
MIC [38]: 8 µM (≈ 20.7 µg/mL)
MIC [39]: 8 µM (≈ 20.7 µg/mL)
MIC [40]: 8 µM (≈ 20.7 µg/mL)
MIC [41]: 8 µM (≈ 20.7 µg/mL)
MIC [42]: 8 µM (≈ 20.7 µg/mL)
MIC [43]: 8 µM (≈ 20.7 µg/mL)
MIC [44]: 8 µM (≈ 20.7 µg/mL)
MIC [45]: 4 µM (≈ 10.3 µg/mL)
MIC [46]: 4 µM (≈ 10.3 µg/mL)
MIC [47]: 4 µM (≈ 10.3 µg/mL)
MIC [48]: 4 µM (≈ 10.3 µg/mL)

CC[C@H](C)[C@H](NC(=O)[C@H](CCCCN)NC(=O)[C@H](CCCCN)NC(=O)[C@H](Cc1ccccc1)NC(=O)[C@H](CC(C)C)NC(=O)[C@H](CCCCN)NC(=O)[C@@H](N)CCCCN)C(=O)N[C@@H](CC(C)C)C(=O)N[C@@H](CCCCN)C(=O)N[C@@H](Cc1ccc(O)cc1)C(=O)N[C@@H](CC(C)C)C(=O)N[C@@H](CCCCN)C(=O)N[C@@H](Cc1ccccc1)C(=O)N[C@@H](CC(C)C)C(=O)N[C@@H](Cc1cnc[nH]1)C(=O)N[C@@H](CO)C(=O)N[C@@H](C)C(=O)N[C@@H](CCCCN)C(=O)O [KKLFKKILKYLKFLHSAK]
MIC [49]: 3.54 µM (≈ 7.9 µg/mL)
MIC [50]: 3.54 µM (≈ 7.9 µg/mL)
MIC [51]: 3.54 µM (≈ 7.9 µg/mL)
